Source: patent US20100324150A1, “HYPERBRANCHED POLYGLYCEROL FOR IMPROVING HEART FUNCTION” (THE UNIVERSITY OF BRITISH COLUMBIA, priority 2007, published 2010)

Key:
[1] = test system: H9C2 cells; experiment: Lactate production by H9C2 cells; format: cell-based, rat; conditions: for Lactate concentration / production in H9C2 cells (in words): relative to control
Method: H9C2 (2-1) embryonic rat heart cells (passage 12, obtained from American Type Culture Collection, Manassas, Va.) were cultured in Dulbecco's modified Eagle's medium (DMEM—Gibco-Invitrogen) containing 10% fetal bovine serum (FBS) and 100 U/ml penicillin-streptomycin at 37° C. in a humidified atmosphere containing 5% CO2. The cells were subcultured into 60 mm culture dishes when 80% confluent (before fusion into myotubes occurred) and were differentiated toward a cardiac phenotype by exposure to DMEM containing 1% horse serum and 0.1 μM all-trans retinoic acid (Sigma) for four days (Menard et al 1999. J Biol Chem 274:29063-70; Bronstrom et al 2000. Int J. Biochem Cell Biol 32:993-1006). Retinoic acid was prepared in the dark in DMSO and stored at −20° C. The concentration of DMSO in the culture media was less than 0.2%. Media was changed daily.
To screen for metabolic actions of dHPGs, H9C2 cells were exposed to a range of dHPG concentration (0.001 to 100 μM). Studies were conducted over six hours in serum-free Krebs-Henseleit (KH) solution (118 mM NaCl, 4.7 mM KCl, 1.2 mM KH2PO4, 1.2 mM MgSO4, 2.0 mM CaCl2, 25 mM NaHCO3, 0.4 mM Na2CO3) containing 0.4 mM palmitate (bound to fatty-acid free albumin), 5.5 mM glucose and 20 mU/L insulin. Aliquots of media (60 μl) were taken at 3 and 6 hours. Viability of cells was assessed by visual inspection of cell morphology using a microscope and by assessment of mitochondrial integrity (MTS—Promega). Accumulation of lactate in the bathing solution over 6 hrs was measured using a diagnostic kit (Sigma, St. Louis, Mo.). Lactate accumulation was expressed as μmol/mg protein. Protein content of the cultures was determined using a commercial Bicinchoninic Acid (BCA) protein assay kit from Sigma (St. Louis, Mo.). Pharmacological agents used as controls included Dicholoracetate (DCA), which directly stimulates glucose oxidation by activating pyruvate dehydrogenase and causes a reduction in lactate.
A variety of dHPG polymers were administered to H9C2 cells in culture and the lactate production analyzed (Tables 2, 3; FIGS. 1a, b). […] Concentration range data (0.0001 to 250.0 uM), as well as controls (dichloroacetate-7.5 mM, DCA-BDH), a group exposed to oxfenicine (2 mM, OXF-Fluka), and a group exposed to oligomycin (2.0 μM, Oligo-Sigma).

[2] = test system: isolated working rat hearts; experiment: Isolated working rat hearts, normoxic non-ischemic perfusion
Method: Hearts from halothane (3-4%)-anesthetized male Sprague-Dawley rats were isolated and perfused as working preparations with Krebs-Henseleit (KH) solution at a left atrial preload of 11.5 mmHg and an aortic afterload of 80 mmHg in a closed recirculating system with oxygenated (95% O2-5% CO2) Krebs-Henseleit (KH) solution maintained at 37° C., as described (Burelle et al 2004. Am J Physiol Heart Circ Physiol 287:H1055-63; Allard et al 1994. Am J Physiol 267:H742-H750; Saeedi et al 2006. BMC Cardiovasc Disord 6:8). A first series of hearts was perfused with KH solution containing 0.6 or 1.2 mM [1-^14C]- or [9,10-^3H]-palmitate, prebound to fatty acid-free albumin (3%), together with 5.5 mM glucose, 0.5 mM lactate, and 20 mU/l insulin in order to measure rates of palmitate oxidation. A second series of hearts was perfused with KH solution containing 0.6 or 1.2 mM palmitate, 5.5 mM [5-^3H/U-^14C]-glucose, 0.5 mM lactate, and 20 mU/l insulin in order to measure glycolysis and glucose oxidation. Concentrations of insulin and substrates reflect values seen under physiologic and pathophysiologic conditions. […]
Heart rate and systolic pressure may be measured using a pressure transducer (Viggo-Spectramed, Oxnard, Calif.) inserted in the afterload line of the isolated heart. Cardiac output and aortic flow may be measured via external flow probes (Transonic Systems, Ithaca, N.Y.) on the left atrial preload and aortic afterload lines, respectively. External work performed by the heart is expressed as, “rate-pressure product”, the product of heart rate and peak systolic pressure, and “hydraulic work”, the product of cardiac output and peak systolic pressure. […]
Isolated, working rat hearts were exposed to 10 μM dHPG-85K-G71.4-C181.9-PEG26.7(RKK-108) and studied under normoxic, non-ischemic conditions. During normoxic, non-ischemic perfusion, RKK108 improves heart function (rate-pressure assessment—beats per minute×mmHg/1000) by about 10 to about 15% (FIG. 2), When heart function is assessed by hydraulic work an improvement of about 20% is also observed.

Structure (SMILES)	Lactate Production by H9C2 Cells ([1]; 7.5 mM) [% Control]	Lactate Production by H9C2 Cells ([1]; 2 μM) [% Control]	Lactate concentration / production in H9C2 cells (in words) [1]	Lactate Production by H9C2 Cells ([1]; 2 mM) [% Control]	Glycolysis [2]	Glucose oxidation ([2]; RKK108 10 μM)	Palmitate oxidation ([2]; RKK108 10 μM)
O=C(O)C(Cl)Cl [DCA, dichloroacetate]	63 ± 5	–	–	–	–	–	–
CC[C@H]1/C=C/C=C/C[C@@H](C)[C@H](O)[C@@](C)(O)C(=O)[C@@H](C)[C@H](O)[C@@H](C)C(=O)[C@@H](C)[C@H](O)[C@@H](C)/C=C/C(=O)O[C@@H]2[C@H](C)[C@H](CC1)O[C@]1(CC[C@H](C)[C@H](C[C@@H](C)O)O1)[C@H]2C [Oligomycin]	–	226 ± 10	increase in lactate concentration, greater than that of OXF-treated samples	–	–	–	–
N[C@H](C(=O)O)c1ccc(O)cc1 [Oxfenicine]	–	–	increase in lactate	130 ± 7	accelerates both glucose oxidation and glycolysis	accelerates both glucose oxidation and glycolysis	reduces palmitate oxidation
